Measured values published in PMC10383573, “New Imadazopyrazines with CDK9 Inhibitory Activity as Anticancer and Antiviral: Synthesis, In Silico, and In Vitro Evaluation Approaches” (Pharmaceuticals, 2023).
Read-outs that look alike come from different tables or passages of the source.

Legend:
[1] = test system: MCF7, HCT116, and K652 cancer cells; experiment: MTT cytotoxicity assay, average of the three cell lines; type: cell-based
Experimental: (§1) The cytotoxicity effect of the new compounds was assessed in an MTT assay against chronic myelogenous leukemia (K652), colorectal (HCT116), and breast (MCF7) cancer cell lines. […] The data is presented in Table 4 as IC50 values (in µM).
(§2) Cells were obtained from American Type Culture Collection. The cell culture DMEM was obtained from Life Technologies and Invitrogen and supplied with 10% FBS from Hyclone, 1% penicillin-streptomycin, and 10 µg/mL insulin from Sigma-Aldrich.
(§3) The MTT assay was used to monitor the in vitro cytotoxicity of our compounds. […] Then, the cells were incubated with 10% v/v reconstituted MTT at 37 °C for 3 h.

CDK9 = CDK9 (Homo sapiens, UniProt P50750); experiment: In vitro CDK9 kinase assay (BPS Biosciences kit)
Experimental: The in vitro kinase activity was measured using a CDK9 assay kit obtained from BPS Biosciences (San Diego, CA). The inhibitory effect of the tested compounds was assessed following the manufacturer’s instructions as indicated in the kit. GraphPad Prism 5.0 software was used to analyze the results.

MCF7 cancer cells = experiment: MTT cytotoxicity assay, MCF7; type: cell-based; details: Homo sapiens, 48 h, means (SD) of three trials
Experimental: as §1, §2
The MTT assay was used to monitor the in vitro cytotoxicity of our compounds. […] Then, the cells were incubated with 10% v/v reconstituted MTT at 37 °C for 3 h. The multiwell plates were then read using Wallac Victor2 1420 multilabel counter, and the absorbance was measured at a wavelength of 450 (ex) and 590 nm (em).

[2] = Cytotoxicity on target cells in the antiviral assay; details: target cells of the HCoV-229E antiviral assay
K652 cancer cells = experiment: MTT cytotoxicity assay, K652; type: cell-based; details: K652, 48 h, read-out: IC50 K652
Experimental: as §1, §2, §3

FHC normal cells = experiment: MTT assay against FHC normal cells; type: cell-based; details: for SI (Selectivity Index) HCT116: FHC versus HCT116; for SI (Selectivity Index) K652: FHC versus K652; for SI (Selectivity Index) MCF7: FHC versus MCF7; for IC50: read-out: FHC IC50
Experimental: as §3

[3] = test system: human Coronavirus (HCoV-229E); experiment: 229E inhibitory assay (cytopathic inhibition effect); type: cell-based, human Coronavirus 229E; details: for IC50: read-out: IC50 229E inhibitory effect
Experimental: The antiviral effect of the compounds was examined in a human Coronavirus (HCoV-229E) inhibitory assay. The standard ribavirin (a well-established antiviral agent) was used as a positive control in this experiment.
The cytopathic inhibition effect was used to assess the antiviral and cytotoxicity of the compounds using a method described by Choi et al. (2009). Coronavirus 229E cells were used in this assay. The antiviral activity of the tested compounds was measured as a percentage using a method described by Pauwels et al.’s (1988) research. GraphPad Prism 5.0 software was used to analyze the results. Ribavirin was used as a positive standard in this assay, and DMSO was used as a negative standard.

HCT116 cancer cells = experiment: MTT cytotoxicity assay, HCT116; type: cell-based; details: Homo sapiens, HCT-116, 48 h, means (SD) of three trials
Experimental: as §1, §2, §3

[4] = MTT assay, normal noncancerous cells
[5] = HCoV-229E, cytopathic effect inhibition

Chain of CDK9 (P50750 whole entry): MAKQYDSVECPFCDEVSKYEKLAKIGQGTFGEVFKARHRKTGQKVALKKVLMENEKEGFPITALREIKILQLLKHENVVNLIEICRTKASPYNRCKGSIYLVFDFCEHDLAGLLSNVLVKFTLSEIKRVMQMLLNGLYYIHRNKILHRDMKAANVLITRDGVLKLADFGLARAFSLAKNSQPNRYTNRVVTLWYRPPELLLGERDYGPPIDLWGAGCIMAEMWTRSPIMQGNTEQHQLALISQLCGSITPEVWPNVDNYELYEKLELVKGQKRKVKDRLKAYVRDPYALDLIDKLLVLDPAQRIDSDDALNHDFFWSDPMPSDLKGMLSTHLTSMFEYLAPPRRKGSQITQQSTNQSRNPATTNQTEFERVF
Chain of CDK9 (O60563 whole entry, further chain): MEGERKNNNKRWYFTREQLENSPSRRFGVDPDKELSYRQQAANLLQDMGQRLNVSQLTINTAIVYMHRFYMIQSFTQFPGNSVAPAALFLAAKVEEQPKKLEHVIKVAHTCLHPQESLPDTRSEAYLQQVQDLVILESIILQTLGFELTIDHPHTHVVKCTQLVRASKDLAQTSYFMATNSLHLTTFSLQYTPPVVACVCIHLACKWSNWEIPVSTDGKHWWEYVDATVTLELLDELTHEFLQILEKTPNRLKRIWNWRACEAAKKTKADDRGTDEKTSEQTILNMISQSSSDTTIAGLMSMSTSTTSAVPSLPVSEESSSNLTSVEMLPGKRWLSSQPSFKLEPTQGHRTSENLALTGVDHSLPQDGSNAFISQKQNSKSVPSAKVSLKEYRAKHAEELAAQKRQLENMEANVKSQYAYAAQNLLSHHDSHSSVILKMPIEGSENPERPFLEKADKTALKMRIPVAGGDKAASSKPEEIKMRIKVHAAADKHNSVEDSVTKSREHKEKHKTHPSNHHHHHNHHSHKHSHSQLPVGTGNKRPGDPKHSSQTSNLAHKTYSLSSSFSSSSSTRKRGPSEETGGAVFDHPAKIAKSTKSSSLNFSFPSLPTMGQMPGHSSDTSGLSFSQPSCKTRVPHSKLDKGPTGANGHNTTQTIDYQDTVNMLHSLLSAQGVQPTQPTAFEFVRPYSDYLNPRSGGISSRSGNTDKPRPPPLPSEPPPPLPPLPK

Row | Structure (SMILES) | IC50 [1] [µM] | IC50 (CDK9) [nM] | IC50 (MCF7 cancer cells) [µM] | CC50 [2] [µM] | IC50 (K652 cancer cells) [µM] | SI (Selectivity Index) HCT116 (FHC normal cells) | SI (Selectivity Index) K652 (FHC normal cells) | SI (Selectivity Index) MCF7 (FHC normal cells) | IC50 (FHC normal cells; [4]) [µM] | SI selectivity index (CC50/IC50) ([3]; HCoV-229E) | IC50 [3, 5] [µM] | IC50 (HCT116 cancer cells) [µM] | IC50 (FHC normal cells) [µM] | IC50 [3] [µM]
1 | CC(C)(C)Nc1c(-c2ccoc2)nc2cnccn12 [Compound 1a, N-(Tert-butyl)-2-(furan-3-yl) imidazo[1,2-a] pyrazin-3-amine] | 12.6 | 190 ± 3 | 2.85 ± 0.03 | 1320 | 13.4 ± 0.19 | 2.7 | 4.3 | 20.5 | 58.6 ± 0.8 | 1.25 | 1060 | 21.6 ± 0.29 | – | –
2 | c1cn2c(NC3CCCCC3)c(-c3ccoc3)nc2cn1 [Compound 1b, N-Cyclohexyl-2-(furan-3-yl) imidazo[1,2-a] pyrazin-3-amine] | 144 | 1780 ± 29 | 99.2 ± 3.08 | – | 168 ± 5.99 | – | – | – | – | – | – | 164 ± 2.1 | – | –
3 | c1ccc(CNc2c(-c3ccoc3)nc3cnccn23)cc1 [Compound 1c, N-Benzyl-2-(furan-3-yl) imidazo[1,2-a]pyrazin-3-amine] | 19.5 | 460 ± 8 | 17.4 ± 0.34 | 653 | 24.8 ± 0.61 | – | – | – | – | – | – | 16.4 ± 0.69 | 61.7 ± 0.96 | 516
4 | COc1ccc(Nc2c(-c3ccoc3)nc3cnccn23)cc1 [Compound 1d, 2-(Furan-3-yl)-N-(4-methoxyphenyl) imidazo[1,2-a] pyrazin-3-amine] | 11.6 | 180 ± 3 | 12.3 ± 0.17 | 846 | 11.8 ± 0.19 | – | – | – | 187 ± 2.92 | 1.27 | 405 | 10.7 ± 0.16 | – | –
5 | CC(C)(C)Nc1c(-c2ccc(O)cc2O)nc2cnccn12 [Compound 2a, 4-(3-(Tert-butylamino)imidazo[1,2-a]pyrazin-2-yl)benzene-1,3-diol] | 85.2 | 450 ± 8 | 48.26 ± 0.24 | – | 71.05 ± 0.39 | – | – | – | – | – | – | 136.4 ± 0.25 | – | –
6 | Oc1ccc(-c2nc3cnccn3c2NC2CCCCC2)c(O)c1 [Compound 2b, 4-(3-(Cyclohexylamino)imidazo[1,2-a]pyrazin-2-yl)benzene-1,3-diol] | 30.8 | 300 ± 6 | 45.9 ± 0.67 | – | 38.8 ± 1.16 | – | – | – | – | – | – | 7.61 ± 2.12 | – | –
7 | Oc1ccc(-c2nc3cnccn3c2NCc2ccccc2)c(O)c1 [Compound 2c, 4-(3-(Benzylamino)imidazo[1,2-a]pyrazin-2-yl)benzene-1,3-diol] | 56.8 | 650 ± 11 | 63.5 ± 0.7 | – | 50.2 ± 0.69 | – | – | – | – | – | – | 56.56 ± 0.13 | – | –
8 | COc1ccc(Nc2c(-c3ccc(O)cc3O)nc3cnccn23)cc1 [Compound 2d, 4-(3-((4-Methoxyphenyl)amino)imidazo[1,2-a]pyrazin-2-yl)benzene-1,3-diol] | 66.8 | 890 ± 18 | 71.2 ± 0.99 | – | 25.3 ± 0.91 | – | – | – | – | – | – | 104 ± 0.98 | – | –
9 | CN(C)c1ccc(-c2nc3cnccn3c2NC(C)(C)C)cn1 [Compound 3a, N-(Tert-butyl)-2-(6-(dimethylamino)pyridin-3-yl)imidazo[1,2-a]pyrazin-3-amine] | 35.1 | 300 ± 5 | 22.8 ± 0.33 | 186 | 78.2 ± 1.32 | – | – | – | – | 0.48 | 393 | 4.13 ± 0.07 | – | –
10 | CN(C)c1ccc(-c2nc3cnccn3c2NC2CCCCC2)cn1 [Compound 3b, N-Cyclohexyl-2-(6-(dimethylamino)pyridin-3-yl)imidazo[1,2-a]pyrazin-3-amine] | 10.7 | 230 ± 5 | 16.4 ± 0.26 | 213 | 4.5 ± 0.08 | 8.7 | 21.3 | 5.8 | 95.8 ± 1.72 | 0.37 | 590 | 11 ± 0.19 | – | –
11 | CN(C)c1ccc(-c2nc3cnccn3c2NCc2ccccc2)cn1 [Compound 3c, N-Benzyl-2-(6-(dimethylamino)pyridin-3-yl)imidazo[1,2-a]pyrazin-3-amine] | 26 | 330 ± 7 | 9.52 ± 0.15 | – | 26.4 ± 0.43 | – | – | – | – | – | – | 42.2 ± 0.68 | – | –
12 | COc1ccc(Nc2c(-c3ccc(N(C)C)nc3)nc3cnccn23)cc1 [Compound 3d, 2-(6-(Dimethylamino)pyridin-3-yl)-N-(4-methoxyphenyl) imidazo[1,2-a]pyrazin-3-amine] | 140 | 1660 ± 34 | 120 ± 2.02 | – | 153 ± 2.99 | – | – | – | – | – | – | 147 ± 2.75 | – | –
13 | CC(C)(C)Nc1c(-c2ccnc(F)c2)nc2cnccn12 [Compound 4a, N-(Tert-butyl)-2-(2-fluoropyridin-4-yl) imidazo[1,2-a] pyrazin-3-amine] | 20.7 | 240 ± 4 | 4.38 ± 0.06 | 303 | 19.6 ± 0.26 | – | – | – | – | 4.8 | 63.3 | 38.2 ± 0.51 | – | –
14 | Fc1cc(-c2nc3cnccn3c2NC2CCCCC2)ccn1 [Compound 4b, N-Cyclohexyl-2-(2-fluoropyridin-4-yl) imidazo[1,2-a] pyrazin-3-amine] | 18.2 | 1220 ± 11 | 16.2 ± 0.41 | 174 | 23.2 ± 0.81 | 4.8 | 3.2 | 4.5 | 74.3 ± 1.26 | 0.29 | 618 | 15.28 ± 0.13 | – | –
15 | Fc1cc(-c2nc3cnccn3c2NCc2ccccc2)ccn1 [Compound 4c, N-Benzyl-2-(2-fluoropyridin-4-yl) imidazo[1,2-a] pyrazin-3-amine] | 92.8 | 1110 ± 20 | 67.3 ± 1.01 | 271 | 114 ± 1.7 | – | – | – | – | 0.9 | 331 | 97.4 ± 1.46 | – | –
16 | COc1ccc(Nc2c(-c3ccnc(F)c3)nc3cnccn23)cc1 [Compound 4d, 2-(2-Fluoropyridin-4-yl)-N-(4-methoxyphenyl) imidazo[1,2-a]pyrazin-3-amine] | 27.5 | 570 ± 11 | 25.1 ± 0.39 | – | 47.11 ± 0.26 | – | – | – | – | – | – | 10.2 ± 0.16 | – | –
17 | NC(=O)c1ncn([C@@H]2O[C@H](CO)[C@@H](O)[C@H]2O)n1 [Ribavirin, reference compound] | – | – | – | 160 | – | – | – | – | – | 1.4 | 114 | – | – | –
18 | CN[C@@H]1C[C@H]2O[C@@](C)([C@@H]1OC)n1c3ccccc3c3c4c(c5c6ccccc6n2c5c31)C(=O)NC4 [Staurosporine, reference compound] | – | – | 18.4 ± 0.4 | – | – | – | – | – | – | – | – | – | – | –
